In patent US20250222114A1, “GLYCOCONJUGATED DRUG FOR THE TREATMENT OF HEPATOCELLULAR CARCINOMA” (priority 2021, published 2025):
“And” between values parts separate entries of the source, which are not always exact repeats. Equal entries are not always repeated.

Assays:
[1] = tested on: IHH (human hepatocytes cell line); assay: Cell viability, IHH; assay type: cell-based; details: IHH cells
Procedure: (§1) In order to evaluate the therapeutic efficacy and potential cytotoxicity of the glycoconjugated drug of the invention for the treatment of HCC, cell viability assays were carried out in different cell lines. Chemiograms were performed using increasing doses of the compound 4-MU as well as the glycosylated compound 4MUR (0-2000 μM). Cell viability was measured by using the CellTiter kit (Promega Corporation). Proliferation was measured through a tritiated thymidine incorporation assay, by incubating the cells for 48 h with either one of the compounds (4MU/4MUR) or culture medium (RPMI) in the presence of 3H-thymidine (Migliore-LaClaustra).

Toxicity study in mice = assay type: in vivo, C3Hj mice; details: for animal body weight: more than 20 days
Procedure: In order to evaluate the toxicity of the compound of the invention, an in vivo assay with mice was carried out. Animals treated with 4MUR were kept healthy during all the experimental protocol.
Briefly, C3Hj mice untreated (n=4) or treated with 4MU (n=4) or 4MUR (n=5) were used to assess its toxicology profile. Mice weight was supervised for more than 20 days. At the end of the experiments, healthy mice or mice receiving 4MU/4MUR were sacrificed to collect liver, spleen, heart, lung, and kidney samples. Tissue sections from liver, spleen, heart, and lungs were paraffin-embedded and H&E staining procedure was performed using standard protocols.

HAS2 [2] = assay: HAS2 mRNA expression (RT-qPCR), Huh7; assay type: cell-based, human; details: Huh7 cells
Procedure: (§2) Since HAS mRNA levels often correspond to the activity of hyaluronan synthesis, the effect of 4MUR on HAS2 and HAS3 expression was assessed. To this end, cells with a concentration of 100,000 cells/ml were cultured on 6-well plates and treated with 4MUR (500 μM) for 24 h. Total RNA was extracted using the TriReagent (Sigma Aldrich) according to the manufacture's protocol. RNA was quantified at 260 nm in a DU®730 spectrophotometer (Beckman Coulter, Fullerton, CA, USA). The RNA purity was evaluated according to MIQE guidelines by measuring the ratio A260/A280. […] RT-qPCR for HAS2, HAS3 genes was performed using iQ SYBR Green Supermix protocol (Bio-Rad Laboratories, Milan, Italy). Each PCR amplification was carried out following manufactures instructions (iQ SYBR Green Supermix-Bio-Rad) in a Bio-Rad iQ5 real-time PCR detection system (iCycler IQ5 software, version 3.1; Bio-Rad) Expression was normalized to actin with two reference genes.

Hepa129 cells [3] = assay: Apoptosis by acridine orange/ethidium bromide staining, Hepa129; assay type: cell-based, murine; details: 48h; for induction of apoptosis: Hepa129, 0.1 mM; for cells showing death by apoptosis: Hepa129, 1 mM
Procedure: On the other hand, it was examined if growth inhibition by 4MUR was due to induction of apoptosis. To this end, cells were stained with an orange solution of acridine-ethidium bromide (Acridine Orange (NA)/Ethidium Bromide (BrEt) staining) and were then visualized by fluorescence microscopy to analyze their morphological characteristics. Briefly, after 48h of treatment, the cells were incubated with a mixture of NA/BrEt (1 ug/ml) and were then observed under a fluorescence microscope (Nikon). Viable cells are permeable to NA and are stained green. Cells with an altered plasma membrane allow BrEt to enter, which displaces NA, staining the cell orange. The percentage of viable or apoptotic cells was counted for each treatment.

[4] = tested on: orthotopic Hepa129 tumors; assay: Orthotopic hepatocellular carcinoma model associated with advanced fibrosis induced by TAA; assay type: in vivo, C3H/He mice; details: for tumor volume: 20 mg/Kg i.p. 3 times a week, day 21 post Hepa129 inoculation; for animals in which tumors were not detected macroscopically: day 21 post-Hepa129; for animal survival: Day 20, FIG. 12C; for fibrosis degree measured by collagen deposits (Sirius red): liver sections
Procedure: To assess the in vivo antitumoral efficacy of 4MUR, an orthotopic tumor model associated with advanced fibrosis induced by TAA was established
C3H/He mice were intraperitoneally (i.p.) treated with 20 mg/kg thioacetamide (TAA) 3 times a week, for 4 weeks, in order to induce liver fibrosis. On day 28, mice were anesthetized and underwent surgery and orthotopic tumors were established by subcapsular intrahepatic inoculation of 1.25×10^5 Hepa129 cells into the left lobe of the liver (Day 0).
Between day 5 and day 7 post-administration of the cells, animals were again subjected to surgery for observing tumor development. Mice were divided into 3 groups (n=5) and each group received: (1) Saline solution (control); (2) 4MU dissolved in water, at a dose of 20 mg/Kg; (3) 4MUR dissolved in water at a dose of 20 mg/Kg. Intraperitoneal administration for different groups began on day 5 and was performed 3 times a week, until the end of the experiment on day 21 post Hepa129 inoculation. On day 21, animals were sacrificed, mice weight was recorded and ascites grade (mild, moderated, severe, and hemorrhagic), as well as tumor volume (mm^3), was calculated by the formula π/6×larger diameter×(smaller diameter)^2, by caliber measurement.
The 4MUR treatment on liver fibrogenesis was evaluated in the animal model. […] To assess the extent of liver fibrosis, formalin-fixed liver samples were embedded in paraffin and 5 μm sections were stained by Sirius Red for detection of fibrillar collagen. Quantitative analysis of Sirius red stained area was performed by computerized morphometric analysis. About 50 light microscope images (100× magnification) per specimen were captured and analyzed using the color threshold detection system developed in ImageJ software (NIH, USA). The results were expressed as percentage of positive area. Collagen deposition was quantified by morphometric analysis and densitometry.
To further understand the 4MUR effect on HCC, HA expression was evaluated in liver tissue sections of mice from the different groups by staining with an HA-binding protein (HA-BP). Negative controls were stained with bHA-BP and pretreated with 100 U/ml Streptomyces hyaluronidase (#385931, Calbiochem) at 37° C. for 30 min. Peroxidase complex (Sigma) 1:10 in PBS was used for developing. The signal was detected by 0.1% diaminobenzidine (Sigma-Aldrich, Buenos Aires, Argentina), 4% glucose, 0.08% ClNH4, 5% nickel ammonium sulfate in 0.2 M AcNa and 0.05% H2O2.

[5] = tested on: Huh7 (human hepatic cell line); assay: Cell viability (CellTiter), Huh7; assay type: cell-based; details: for IC50: Huh7 cells
Procedure: as §1, with “lines. To this end, an in vitro model was designed. The cells used for in vitro assay were a murine hepatic cell line (Hepa1-6) and a human hepatic cell line (Huh7).” for “lines.”

HA in CFSC-2G cells = assay: HA content by flow cytometry, CFSC-2G; assay type: cell-based, rat; details: 0.25-1 mM, 48 h
Procedure: The levels of HA were quantified in the activated stellate cells CFSC-2G. For this goal, HA was detected by incubation with HA-fluorescein iso-thiocyanate (FITC) (20 μg/100 μL, Calbiochem SA, Bs. As., Argentina). Cells were treated with 4MU or 4MUR 0.25-1 mM and fixed were analyzed by flow cytometry with a FACS Accuri, BD (Becton Dickinson Immunocytometry Systems), using the BD Accuri 6C™ software.

HAS3 [6] = assay: HAS3 mRNA expression (RT-qPCR), CFSC-2G; assay type: cell-based, rat; details: CFSC-2G cells
Procedure: as §2

HAS2 [7] = assay: HAS2 mRNA expression (RT-qPCR), CFSC-2G; assay type: cell-based, rat; details: CFSC-2G cells
Procedure: as §2

HAS3 [8] = assay: HAS3 mRNA expression (RT-qPCR), Huh7; assay type: cell-based, human; details: Huh7 cells
Procedure: as §2

Hepa129 cells [9] = assay: Proliferation by 3H-thymidine incorporation, Hepa129; assay type: cell-based, murine; details: for dose at which proliferation was significantly decreased: Hepa129, 48 h, 3H-thymidine
Procedure: Chemiograms were performed using increasing doses of the compound 4-MU as well as the glycosylated compound 4MUR (0-2000 μM). Cell viability was measured by using the CellTiter kit (Promega Corporation). Proliferation was measured through a tritiated thymidine incorporation assay, by incubating the cells for 48 h with either one of the compounds (4MU/4MUR) or culture medium (RPMI) in the presence of 3H-thymidine (Migliore-LaClaustra). After incubation, cells were harvested and centrifuged to remove ^3H-thymidine from the supernatant. The cell pellet was lysed with sterile distilled water (200 μl) and said volume was added to paper filters for retaining cell DNA with incorporated ^3H-thymidine. Each paper filter was impregnated in a tube containing scintillation liquid and each sample was run and read using a liquid scintillator counter (Beckman) detecting […] per minute emitted by tritium (^3H). Results are expressed as counts per minute (cpm) for each sample. Proliferation capacity of murine Hepa129 cells treated with 4MU and 4MUR was evaluated, as measured by ^3H-thymidine incorporation.

HA in Hepa129 cells = assay: HA content by flow cytometry, Hepa129; assay type: cell-based, murine; details: 48 h
[10] = tested on: CFSC-2G (Rat hepatic stellate cell line); assay: Cell viability, CFSC-2G; assay type: cell-based; details: CFSC-2G cells
Procedure: as §1

[11] = tested on: α-SMA, TGF-β, COL1A2, TIMP-1, MMP-9 in CFSC-2G cells; assay: Fibrotic-related gene expression by qPCR, CFSC-2G; assay type: cell-based, rat; details: 48 h
Procedure: The effect of 4MUR on liver fibrogenesis was assessed by the expression of the fibrotic-related genes including α-SMA, TGF-β, profibrogenic (COL1A2 and TIMP-1), and the antifibrogenic gene matrix metalloproteinase (MMP-9) on CFSC-2G cells by qPCR.

[12] = tested on: Hepa1-6 (murine hepatic cell line); assay: Cell viability, Hepa1-6; assay type: cell-based; details: Hepa 1.6 cells, compared with 4-MU
Procedure: In order to evaluate the therapeutic efficacy and potential cytotoxicity of the glycoconjugated drug of the invention for the treatment of HCC, cell viability assays were carried out in different cell lines.
To this end, an in vitro model was designed. The cells used for in vitro assay were a murine hepatic cell line (Hepa1-6) and a human hepatic cell line (Huh7).
as §1, with “Chemiograms” for “In order to evaluate the therapeutic efficacy and potential cytotoxicity of the glycoconjugated drug of the invention for the treatment of HCC, cell viability assays were carried out in different cell lines. Chemiograms”

[13] = tested on: orthotopic Hepa129 tumors; assay: Orthotopic hepatocellular carcinoma model associated with advanced fibrosis induced by TAA; assay type: in vivo, C3H/He mice; details: oral administration 200 mg/kg/day

Cc1cc(=O)oc2cc(O)ccc12 [4MU, 4-Methylumbelliferone, reference compound]
IC50 ([1]; Homo sapiens, Hepatocyte): 486 µM
histology (H&E) of liver, kidney, lungs, spleen, heart (Toxicity study in mice): no induced tissue damage
animal body weight (Toxicity study in mice): no significant changes
expression of HAS2 (HAS2 [2]): did not affect
induction of apoptosis (Hepa129 cells [3]): resistant
cells showing death by apoptosis (Hepa129 cells [3]): 60%
tumor volume [4]: 243.8±94.0 mm^3
animals in which tumors were not detected macroscopically ([4]; 20 mg/Kg i.p.): 20%
animal survival [4]: 66% and 67%
fibrosis degree measured by collagen deposits (Sirius red) ([4]; 20 mg/Kg i.p.): 0.53±0.04
IC50 ([5]; Homo sapiens, Huh-7): > 2000 µM
HA level (HA in CFSC-2G cells): significantly decreased
HAS3 expression upregulation (HAS3 [6]): 4.2 fold
HAS2 upregulation (HAS2 [7]): around 5 fold
HAS3 up-regulation (HAS3 [8]): around 3.5 fold
lowered proliferation (Hepa129 cells [9]; Hepa129, 1 mM): 50%
dose at which proliferation was significantly decreased (Hepa129 cells [9]): 1 mM
HA contents (HA in Hepa129 cells): significantly decreased
IC50 ([10]; Rattus norvegicus): 1160 µM

Cc1cc(=O)oc2cc(O[C@@H]3O[C@H](CO[C@@H]4O[C@@H](C)[C@H](O)[C@@H](O)[C@H]4O)[C@@H](O)[C@H](O)[C@H]3O)ccc12 [4MUR, 4-methylumbelliferyl-rutinoside]
IC50 [1]: > 2000 µM
increase of IC50 values of 4MUR compared to 4MU [1]: 6.2 fold
health of animals during the experimental protocol (Toxicity study in mice): kept healthy
histology (H&E) of liver, kidney, lungs, spleen, heart (Toxicity study in mice): no induced tissue damage
animal body weight (Toxicity study in mice): no significant changes
expression of HAS2 (HAS2 [2]): significantly reduced
induction of apoptosis (Hepa129 cells [3]): significantly induced apoptosis
cells showing death by apoptosis (Hepa129 cells [3]): 100%
COL1A2 expression [11]: strongly downregulated
MMP-9 expression [11]: not affected
TGF-β expression [11]: strongly downregulated
TIMP-1 expression [11]: strongly downregulated
α-SMA expression [11]: strongly downregulated
in vitro antitumoral effect [12]: significantly higher than 4-MU
HA expression in liver tissue (HA-BP staining) ([4]; 20 mg/Kg i.p.): remarkable reduction
tumor volume [4]: 113.5±77.8 mm^3
animals in which tumors were not detected macroscopically ([4]; 20 mg/Kg i.p.): 60%
animal survival [4]: 100%
amount of ascitic fluid ([4]; compared with untreated mice and 4MU): significantly reduced
efficacy against hepatocellular carcinoma ([4]; i.p. 20 mg/kg/day): efficient
fibrosis degree measured by collagen deposits (Sirius red) ([4]; 20 mg/Kg i.p.): 0.21±0.02
increase of 4MU antitumoral effect by glycosylation ([5]; Huh7, 4MUR compared to 4MU): 2.2
IC50 [5]: 488 µM
HA level (HA in CFSC-2G cells): significantly decreased
HAS3 expression down regulation (HAS3 [6]): 4.5 fold
HAS2 expression (HAS2 [7]): did not affect
efficacy against hepatocellular carcinoma [13]: efficient
expression of HAS3 (HAS3 [8]): significantly reduced
lower dose for significant decrease of proliferation vs 4MU (Hepa129 cells [9]; Hepa129): 10 times
proliferation (Hepa129 cells [9]; Hepa129, 1 mM): did not proliferate
dose at which proliferation was significantly decreased (Hepa129 cells [9]): 0.1 mM
HA contents (HA in Hepa129 cells): significantly decreased
IC50 [10]: > 2000 µM
increase of IC50 values of 4MUR compared to 4MU [10]: 25.8 fold
